Data taken from publication PMC9728343, “Characterization of CYP125A13, the First Steroid C-27 Monooxygenase from Streptomyces peucetius ATCC27952” (Journal of Microbiology and Biotechnology, 2020).

Key:
[1] = molecular target: T1, CYP125A13 (Streptomyces peucetius, UniProt Q70AR4); experiment: UV-Vis spectral titration (type I shift), tight-binding quadratic fit; also turnover to 27-hydroxycholesterol with PDX/PDR (Km […])
T1 construct: gene cyp0266
T1 sequence (Q70AR4 1-413): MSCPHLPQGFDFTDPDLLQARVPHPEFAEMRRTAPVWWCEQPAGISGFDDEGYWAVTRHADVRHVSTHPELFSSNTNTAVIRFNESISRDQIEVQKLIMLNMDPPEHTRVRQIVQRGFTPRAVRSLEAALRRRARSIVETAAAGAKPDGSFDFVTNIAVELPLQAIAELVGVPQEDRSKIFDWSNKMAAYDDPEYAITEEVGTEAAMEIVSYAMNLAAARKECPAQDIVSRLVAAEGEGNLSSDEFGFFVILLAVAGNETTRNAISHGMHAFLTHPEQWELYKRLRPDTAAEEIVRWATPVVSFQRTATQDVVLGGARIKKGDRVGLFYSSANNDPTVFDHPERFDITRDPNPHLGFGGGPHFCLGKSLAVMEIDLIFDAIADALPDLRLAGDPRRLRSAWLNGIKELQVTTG

[2] = molecular target: T1, CYP125A13; experiment: UV-Vis spectral titration (type I shift), tight-binding quadratic fit; no product formation detected

Kd [1] | Structure (SMILES) | Kd [2]
56.9 ± 11.3 µM | CC(C)CCC[C@@H](C)[C@H]1CC[C@H]2[C@@H]3CC=C4C[C@@H](O)CC[C@]4(C)[C@H]3CC[C@]12C [cholesterol] | 
 | CC(C)CCC[C@@H](C)[C@H]1CC[C@H]2[C@@H]3CCC4=CC(=O)CC[C@]4(C)[C@H]3CC[C@]12C [4-cholesten-3-one] | 59.2 ± 3.9 µM
